Data as given in paper PMC3430861, “The pharmacological profile of ELIC, a prokaryotic GABA-gated receptor” (Neuropharmacology, 2012).
Like-named read-outs stand apart in the source and are kept apart here.

Tests used:
ELIC [1] = biological target: T1, ELIC (Dickeya chrysanthemi, UniProt P0C7B7, INS163G); experiment: cell-based; assay type: cell-based, Erwinia chrysanthemi
T1 construct: expressed in transfected cells; host or cells: Xenopus laevis oocytes injected with cRNA
Experimental: Xenopus laevis oocyte-positive females were purchased from NASCO (Fort Atkinson, Wisconsin, USA) and maintained according to standard methods.
(§1) The ELIC sequence (Genbank accession number POC7B7) was purchased from Genscript as a synthetic gene with optimized codon usage for expression in Escherichia coli. […] Stage V and VI oocytes were injected with 20 ng cRNA, and currents recorded 1–3 days post-injection.

ELIC [2] = biological target: T2, ELIC (Dickeya chrysanthemi, UniProt P0C7B7); experiment: cell-based; assay type: cell-based, Erwinia chrysanthemi
T2 sequence (P0C7B7 8-321): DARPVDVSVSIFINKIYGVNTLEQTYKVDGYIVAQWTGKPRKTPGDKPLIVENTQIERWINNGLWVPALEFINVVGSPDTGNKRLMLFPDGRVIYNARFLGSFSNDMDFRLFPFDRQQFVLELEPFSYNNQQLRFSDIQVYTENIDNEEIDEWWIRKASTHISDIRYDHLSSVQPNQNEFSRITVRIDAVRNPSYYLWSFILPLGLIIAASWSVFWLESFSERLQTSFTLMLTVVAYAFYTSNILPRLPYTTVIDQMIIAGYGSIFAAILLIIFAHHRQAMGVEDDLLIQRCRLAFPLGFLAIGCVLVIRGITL
Experimental: Xenopus laevis oocyte-positive females were purchased from NASCO (Fort Atkinson, Wisconsin, USA) and maintained according to standard methods. Harvested stage V–VI Xenopus oocytes were washed in four changes of ND96 (96 mM NaCl, 2 mM KCl, 1 mM MgCl2, 5 mM HEPES, pH 7.5), de-folliculated in 1.5 mg ml^−1 collagenase Type 1A for approximately 2 h, washed again in four changes of ND96 and stored in ND96 containing 2.5 mM sodium pyruvate, […], 0.7 mM theophylline.
as §1

GLIC = tested on: GLIC; set-up: method as in Alqazzaz et al., 2011; details: comparison ELIC vs GLIC; ref Alqazzaz et al., 2011; cited from earlier work
[3] = 10 mM, read-out: pEC50 (EC50): agonist effect at the concentration shown (converted)
[4] = 1 mM, read-out: pEC50 (EC50): agonist effect at the concentration shown (converted)
[5] = Hill coefficient of inhibition curve

## NCCCP(=O)(O)O [3-aminophosphonic acid]
ELIC [1]; 100 mM
  effect on ELIC (agonist test): no effect
ELIC [1]; 100 mM, read-out: pEC50 (EC50): agonist effect at the concentration shown (converted)
  EC50: > 10000 µM

## O=C(O)Cc1c[nH]c2ccccc12 [3-indole acetic acid]
ELIC [1]; 10 mM
  effect on ELIC (agonist test): no effect
ELIC [1]; [3]
  EC50: > 10000 µM

## NCCc1c[nH]c2ccc(O)cc12 [5-HT]
ELIC [1]; [4]
  EC50: > 10000 µM
ELIC [1]; 10 mM
  effect on ELIC (agonist test): no ELIC responses

## Oc1ccc2[nH]ccc2c1 [5-hydroxyindole]
ELIC [2]
  inhibition of ELIC (yes/no): inhibiting neither

## CC(=O)OCC[N+](C)(C)C [ACh]
ELIC [1]; [4]
  EC50: > 10000 µM
ELIC [1]; 10 mM
  effect on ELIC (agonist test): no ELIC responses

## C[C@H](N)C(=O)O [Alanine]
ELIC [1]; 1 mM
  effect on ELIC (agonist test): no effect

## NC12CC3CC(CC(C3)C1)C2 [Amantadine]
GLIC
  inhibition of GLIC (yes/no): inhibiting both receptors
ELIC [2]
  inhibition of ELIC (yes/no): inhibiting both receptors
ELIC [2]; [5]
  nH: 2.5 ± 0.4
ELIC [2]; IC50
  IC50: 370 µM
ELIC [2]; pIC50 (Mean ± SEM)
  IC50: 372 µM

## N=C(N)NCCC[C@H](N)C(=O)O [Arginine]
ELIC [1]; 1 mM
  effect on ELIC (agonist test): no effect

## NC(=O)C[C@H](N)C(=O)O [Asparagine]
ELIC [1]; 1 mM
  effect on ELIC (agonist test): no effect

## N[C@@H](CC(=O)O)C(=O)O [Aspartate]
ELIC [1]; 1 mM
  effect on ELIC (agonist test): no effect

## CN1CCc2cc3c(cc2[C@H]1[C@@H]1OC(=O)c2c1ccc1c2OCO1)OCO3 [Bicuculline]
ELIC [2]; 100 μM
  effect when co-applied in the presence of GABA: no effect
ELIC [2]; wild type ELIC, at the GABA EC50 (1.6 mM)
  pIC50: no inhibition: NI* (no inhibition at 100 μM)

## CC(C)(C)[C@]1(O)CC2OC(=O)CC23C(=O)OC2OC(=O)[C@H](O)C231 (some centres unmarked) [Bilobalide]
ELIC [2]; [5]
  nH: 1.3 ± 0.2
ELIC [2]; IC50, wild type ELIC, at the GABA EC50 (1.6 mM)
  IC50: 330 µM
ELIC [2]; pIC50 (Mean ± SEM), wild type ELIC, at the GABA EC50 (1.6 mM)
  IC50: 331 µM

## CN(C)CCCN1c2ccccc2Sc2ccc(Cl)cc21 [Chlorpromazine]
GLIC
  inhibition of GLIC (yes/no): inhibiting both receptors
ELIC [2]
  inhibition of ELIC (yes/no): inhibiting both receptors
  nH: 1.2 ± 0.4
ELIC [2]; IC50
  IC50: 230 µM
ELIC [2]; pIC50 (Mean ± SEM)
  IC50: 229 µM

## N[C@@H](CS)C(=O)O [Cysteine]
ELIC [1]; 1 mM
  effect on ELIC (agonist test): no effect

## C[C@@H]1C[C@H]2[C@@H]3CCC4=CC(=O)C=C[C@]4(C)[C@@]3(F)[C@@H](O)C[C@]2(C)[C@@]1(O)C(=O)CO [Dexamethasone]
ELIC [2]; comparison ELIC vs GLIC
  inhibition of ELIC (yes/no): inhibiting neither

## ClC1=C(Cl)[C@]2(Cl)[C@@H]3[C@@H]4C[C@@H]([C@H]5O[C@@H]45)[C@@H]3[C@@]1(Cl)C2(Cl)Cl [Dieldrin]
ELIC [2]
  nH: 1.1 ± 0.1
ELIC [2]; IC50
  IC50: 66 µM
ELIC [2]; pIC50 (Mean ± SEM)
  IC50: 66.1 µM

## N#Cc1nn(-c2c(Cl)cc(C(F)(F)F)cc2Cl)c(N)c1[S+]([O-])C(F)(F)F (centres unmarked) [Fipronil]
GLIC
  inhibition of GLIC (yes/no): inhibiting both receptors
ELIC [2]
  inhibition of ELIC (yes/no): inhibiting both receptors
  nH: 1.8 ± 0.4
ELIC [2]; IC50
  IC50: 350 µM
ELIC [2]; pIC50 (Mean ± SEM)
  IC50: 347 ± 4.01 µM

## NCCCC(=O)O [GABA]
ELIC [1]; wild type ELIC, agonist concentration-response
  Hill Slope: 2.1 ± 0.6
ELIC [1]; wild type ELIC, oocytes clamped at −60 mV
  pEC50: 2.78 ± 0.04
ELIC [1]; wild type ELIC, oocytes clamped at −60 mV, read-out: EC50 (converted)
  EC50: 1600 µM

## COc1ccc(-c2ccc(=N)n(CCCC(=O)O)n2)cc1 [Gabazine (SR-95531), Gabazine]
ELIC [2]
  effect when co-applied in the presence of GABA: no effect

## NC(=O)CC[C@H](N)C(=O)O [Glutamine]
ELIC [1]; 1 mM
  effect on ELIC (agonist test): no effect
ELIC [2]
  effect when co-applied in the presence of GABA: no effect

## NCC(=O)O [Glycine]
ELIC [1]; [4]
  EC50: > 10000 µM
ELIC [1]; 10 mM
  effect on ELIC (agonist test): no ELIC responses
ELIC [1]; [3]
  EC50: > 10000 µM

## N[C@@H](Cc1c[nH]cn1)C(=O)O [Histidine]
ELIC [1]; 1 mM
  effect on ELIC (agonist test): no effect
ELIC [2]
  effect when co-applied in the presence of GABA: no effect

## O=[N+]([O-])NC1=NCCN1Cc1ccc(Cl)nc1 [Imidaclopride]
ELIC [2]
  inhibition of ELIC (yes/no): inhibiting neither

## CC[C@H](C)[C@H](N)C(=O)O [Isoleucine]
ELIC [1]; 1 mM
  effect on ELIC (agonist test): no effect

## N[C@@H](CCC(=O)O)C(=O)O [L-glutamate]
ELIC [1]; 1 mM
  effect on ELIC (agonist test): no effect
ELIC [1]; 10 mM
  effect on ELIC (agonist test): did not activate ELIC

## CC(C)C[C@H](N)C(=O)O [Leucine]
ELIC [1]; 1 mM
  effect on ELIC (agonist test): no effect

## NCCCC[C@H](N)C(=O)O [Lysine]
ELIC [1]; 1 mM
  effect on ELIC (agonist test): no effect

## CSCC[C@H](N)C(=O)O [Methionine]
ELIC [1]; 1 mM
  effect on ELIC (agonist test): no effect

## CC(=O)O[C@H]1C[C@@H]2CC[C@@H]3[C@H](CC[C@@]4(C)[C@H]3C[C@H]([N+]3(C)CCCCC3)[C@@H]4OC(C)=O)[C@@]2(C)C[C@@H]1[N+]1(C)CCCCC1 [Pancuronium]
ELIC [2]
  pIC50: no inhibition: NI (key: NI: no inhibition at 10 mM; NI*: no inhibition at 100 μM)

## N[C@@H](Cc1ccccc1)C(=O)O [Phenylalanine]
ELIC [1]; 1 mM
  effect on ELIC (agonist test): no effect

## CCCC(C(=O)OCCN(CC)CC)(c1ccccc1)c1ccccc1 [Proadifen]
ELIC [2]
  nH: 2.9 ± 0.6
  pIC50 (Mean ± SEM): 5.09 ± 0.04
ELIC [2]; IC50
  IC50: < 20 µM
ELIC [2]; read-out: IC50
  IC50: 8.1 µM

## CC(=O)[C@H]1CC[C@H]2[C@@H]3CCC4=CC(=O)CC[C@]4(C)[C@H]3CC[C@]12C [Progesterone]
ELIC [2]
  nH: 1.8 ± 0.58
ELIC [2]; IC50
  IC50: 150 µM
ELIC [2]; pIC50 (Mean ± SEM)
  IC50: 151 µM

## O=C(O)[C@@H]1CCCN1 [Proline]
ELIC [1]; 1 mM
  effect on ELIC (agonist test): no effect
ELIC [2]
  effect when co-applied in the presence of GABA: no effect

## Cc1cccc(C)c1N=C([O-])C[N+](C)(C)C.Cl [QX-222]
ELIC [2]
  inhibition of ELIC (yes/no): inhibiting neither
  pIC50: no inhibition: NI (key: NI: no inhibition at 10 mM; NI*: no inhibition at 100 μM)

## N[C@@H](CO)C(=O)O [Serine]
ELIC [1]; 1 mM
  effect on ELIC (agonist test): no effect

## C[C@@H](O)[C@H](N)C(=O)O [Threonine]
ELIC [1]; 1 mM
  effect on ELIC (agonist test): no effect

## N[C@@H](Cc1c[nH]c2ccccc12)C(=O)O [Tryptophan]
ELIC [1]; 1 mM
  effect on ELIC (agonist test): no effect

## N[C@@H](Cc1ccc(O)cc1)C(=O)O [Tyrosine]
ELIC [1]; 1 mM
  effect on ELIC (agonist test): no effect
ELIC [2]
  effect when co-applied in the presence of GABA: no effect

## CC(C)[C@H](N)C(=O)O [Valine]
ELIC [1]; 1 mM
  effect on ELIC (agonist test): no effect

## NCc1cc(=O)[nH]o1 [muscimol]
ELIC [1]; 30 μM
  effect on ELIC (agonist test): no effect

## O=C(O)[C@@H]1CCC(O)=N1 [pyroglutamate]
ELIC [1]; 10 mM
  effect on ELIC (agonist test): did not activate ELIC

## O=C([O-])CCC(=O)[O-].[Na+].[Na+] [sodium succinate]
ELIC [1]; 10 mM
  effect on ELIC (agonist test): did not activate ELIC
ELIC [1]; [3]
  EC50: > 10000 µM

## O=C(O)CCC(=O)O [succinic acid]
ELIC [1]; 10 mM
  effect on ELIC (agonist test): did not activate ELIC

## CC[N+](CC)(CC)CC [tetraethylammonium]
ELIC [2]; read-out: IC50
  IC50: ~20000 µM

## C[N+](C)(C)C [tetramethylammonium]
ELIC [2]; read-out: IC50
  IC50: ~20000 µM

## CCC(N)C(=O)O (stereo not drawn) [α-aminobutyrate]
ELIC [1]; 10 mM
  effect on ELIC (agonist test): did not activate ELIC
ELIC [1]; [3]
  EC50: > 10000 µM

## O=C(O)CCC(=O)C(=O)O [α-ketoglutarate]
ELIC [1]; 10 mM
  effect on ELIC (agonist test): did not activate ELIC
ELIC [1]; [3]
  EC50: > 10000 µM

## NCCC(=O)O [β-alanine]
ELIC [1]; 10 mM
  effect on ELIC (agonist test): no effect

## O=C1CCCO1 [γ-butyrolactone]
ELIC [1]; 10 mM
  effect on ELIC (agonist test): did not activate ELIC

## Ivermectin
ELIC [2]
  inhibition of ELIC (yes/no): inhibiting neither
  pIC50: no inhibition: NI (key: NI: no inhibition at 10 mM; NI*: no inhibition at 100 μM)

## α-amino hydroxbutyric acid
ELIC [1]; 10 mM
  effect on ELIC (agonist test): no effect
ELIC [1]; [3]
  EC50: > 10000 µM
